According to patent US5593835A, “Methods and kits for RNA binding compounds” (President and Fellows of Harvard College, priority 1995, dated 1997):

What was measured:
[1] = biological target: RRE region of HIV RNA; assay: Fluorescence binding and competitive binding to RRE RNA; conditions: competition, 100 nM RNA, 15 nM fluorescent tobramycin, 20° C., pH 7.4; read-out: Dissociation Constant (KD) RRE RNA
Procedure: In order to quantitatively determine whether fluorescently labelled tobramycin and other antibiotics bind directly to the RRE region and/or to other regions of the HIV RNA, and with what affinity, the RRE and TAR regions of HIV RNA were prepared and used in the method of the invention as target RNAs.
For binding studies, different concentrations of RRE RNA (from 0 to 300 nm) were mixed with a constant concentration (15 nM) PYT in Binding buffer (140 mM NaCl, 1 mM MgCl2, 20 mM HEPES, pH 7.4), 2 ml total volume, for 1-5 min. at 20° C. in a semimicro-cell cuvette. The fluorescence was measured on a Perkin-Elmer Model 512 double beam fluorescence spectrophotometer. The excitation wavelength used was 330 nm. The intensities of fluorescence emission at 390 nm were used to calculate dissociation constants. Generally 8 to 12 points were used for calculation.
In other competitive binding studies, TAR or RRE RNA was added at a constant concentration of 100 nM±5% and PYT at 15 nM. Different concentrations of competitive antibiotic (tobramycin (o-60 μM), gentamicin C (0-100 μM), neomycin B (0-4 μM), or lividomycin A (0-100 μM) or Rev protein (0-6 μM) were mixed with constant concentrations of RNA (100 nM TAR or RRE) and C1PYT (15 nM), in Binding buffer (140 mM NaCl, 5 mM KCl, 1 mM MgCl2, 20 mM HEPES, pH 7.4), 2 ml total volume, for 1-5 min. at 20° C. in a semimicrocell cuvette. The fluorescence was measured on a Perkin-Elmer Model 512 double beam fluorescence spectrophotometer. The excitation wavelength used was 330 nm. The intensities of fluorescence emission at 390 nm were used to calculate dissociation constants. Generally 8 to 12 points were used for calculation.
Wild type and mutant RRE RNAs were transcribed in vitro by T7 RNA polymerase using synthetic oligonucleotide templates, as described by Milligan et al. (Meth. Enzymol. (1989) 180: 51-62).
(§1) Competition binding measurements of antibiotics with RNA and PYT were performed at constant concentrations of PYT and RNA by monitoring fluorescence intensity changes as a function of changing concentrations of the antibiotics (a standard fluorescence curve). The KD s for the antibiotics were calculated by the curve fitting of the fluorescence intensity of PYT as a function of antibiotic concentration, using the following equation: […]

[2] = biological target: clone W13 RNA (SEQ ID NO:1), tobramycin-selected RNA aptamer; assay: Equilibrium dialysis binding to clone W13 RNA; conditions: equilibrium dialysis, direct; read-out: KD
Procedure: One of these RNAs, clone W13 (SEQ ID NO:1) was chosen for quantitative studies to determine the specificity of its binding to RNA. […] The dissociation constant for tobramycin was determined to be 3 μM by competition studies with ^3 H-acetyl tobramycin. These values are close to those measured for tobramycin and ^3 H-acetyl tobramycin binding to ribosomal targets (LeGoffic et al. (1979) Eur. J. Biochem. 102: 73-81).
Equilibrium dialysis measurements were performed according to the procedure of Lorsch et al. (Biochem. (1994) 33: 973-982).

[3] = system: W13 RNA having SEQ ID NO:1; assay: Fluorescence (PYT quenching) titration and competition binding to W13 RNA; conditions: for competition with PYT binding (in words): fluorescence competition assay
Procedure: To study the binding behavior of clone W13, a fluorescently labelled pyrene-conjugated tobramycin derivative "PYT" was prepared.
For competitive binding studies, different concentrations of antibiotic (glucosamine (0-10 mM), erythromycin (0-6 mM), gentamicin C (0-700 μM), or neomycin B (0-650 μM)), were mixed with constant concentrations of RNA (300 nM W13) and PYT (150 nM), in Binding buffer (140 mM NaCl, 5 mM KCl, 1 mM MgCl2, 1 mM CaCl2, 20 mM HEPES, pH 7.4), 750 μl total volume, for 1-5 min. at 20° C. in a semimicro-cell cuvette. The fluorescence was measured on a Perkin-Elmer Model 512 double beam fluorescence spectrophotometer. The excitation wavelength used was 341 nm. The intensities of fluorescence emission at 380 nm were used to calculate dissociation constants. Generally 8 to 10 points were used for calculation.
(§2) Steady state fluorescence measurements were performed on a double beam fluorescence spectrometer (Perkin-Elmer Model 512, Norwalk, Conn.). The excitation wavelength was 341 nm. All measurements were done at 20° C. in 140 mM NaCl, 5 mM KCl, 1 mM CaCl2, 1 mM MgCl2, and 20 mM HEPES, pH 7.4. The KD of the PYT and the RNA aptamer was calculated by the curve fitting of the fluorescence intensity as a function of RNA concentration, using the following equation
(assuming a 1:1 complex): I=Io +0.5Δε ([PYT]o
-(([PYT]o +[RNA]o KI)^2 -4[PYT]o [RNA]o)^0.5)
Competition binding measurements of antibiotics with RNA and PYT were performed at constant concentrations of PYT and RNA by monitoring fluorescence intensity changes as a function of changing concentrations of the antibiotics (a standard fluorescence curve). The KD s for the antibiotics were calculated by the curve fitting of the fluorescence intensity of PYT as a function of antibiotic concentration, using the following equation:
I=Io +Δε[PYT.circle-solid.RNA]
[PYT.circle-solid.RNA]=0.5(([PYT]o +[RNA]o)([RNA]o
+KD)+KI ([T]o +[RNA]o +KD)-((([PYT]o
+[RNA]o)([RNA]o +KD)+KI ([T]o +[RNA]o
+KD))^2 -4([RNA]o +KD) [PYT]o [RNA]o
([RNA]o +KD))^0.5)([RNA]o +KD) (equation 2)
KD and KI are the dissociation constants for the antibiotic and PYT respectively.
[T]o is the total concentration of antibiotic added. Measurements were taken at least twice for each measured KD.

[4] = biological target: X1s1 RNA (SEQ ID NO: 3), synthetically derived from the predicted structures; assay: Fluorescence binding measurements, X1s1 RNA; conditions: K1 - high affinity; footnote b: ligand is 6'N4-pyreneacetyl tobramycin; read-out: Dissociation Constants K1(PYT)
Procedure: (§3) The binding of tobramycin to two cloned RNAs X1 (SEQ ID NO:2) and J6 (SEQ ID NO:5), representative of both classes of consensus sequences, was measured using the fluorescence techniques described in the exemplification.
(§4) *synthetically derived from the predicted structures
as §2, §1

[5] = system: RNA pool transcribed from DNA after the sixth selection, bound to tobramycin affinity column; assay: Elution of bound RNA from tobramycin affinity column; assay type: binding; conditions: 10 column volumes of selection buffer containing 50 mM D-glucosamine
From the text: Elution patterns of the RNA from the columns are shown in FIG. 4 for the second and sixth selections. Over 6 cycles of selection, the percentages of RNA specifically eluted with tobramycin were <0.1%, 3.0%, 2.9%, 26%, 55%, and 82%. […] The RNA pool transcribed from DNA after the sixth selection could not be eluted from the affinity column, even after 100 column volumes of selection buffer.
An N-hydroxysuccinimide Affi-Gel affinity column (Bio-Rad, Hercules, Calif.) was derivatized with either 20 μmoles or 0.075 μmoles tobramycin per ml of gel to generate the affinity columns. Excess N-hydroxysuccinimide linkages were blocked by adding 1M ethanolamine. The resulting column served as the support for the RNA selections. The tobramycin concentration on column was estimated as about 15 mM. Selections were performed in 1 ml column volumes in a buffer (selection buffer) containing 140 mM NaCl, 5 mM KCl, 1 mM CaCl2, 1 mM MgCl2, and 20 mM Tris acetate, pH 7.4 (Bock et al. (1992) Nature 355: 564-566). A 1 ml Affi-Gel 10 pre-column treated with ethanolamine was used in all selections.
The original double stranded DNA pool was constructed by large scale PCR amplification of the synthesized 109mer random DNA pool (Oligos, Etc., Inc., Wilsonville, Oreg.) containing 60 random nucleotides. […]

[6] = biological target: random selected RNA pool (low stringency tobramycin column); assay: Fluorescence assay, average binding of the random selected RNA pool; conditions: overall selected pool mixture
Procedure: To determine whether the W13 RNA clone is representative of the average binding capacity of the random selected RNA pool, the average KD values for the random selected pool were measured. […] Therefore, the W13 RNA is representative of the average binding capacity of the random selected pool.
as §2, §1

[7] = biological target: J6 RNA (SEQ ID NO:5); assay: Fluorescence binding measurements, J6 RNA; conditions: K1 - high affinity; fluorescent ligand per footnote a/b; read-out: Dissociation Constants K1(PYT)
Procedure: as §3, §2, §1

[8] = biological target: J6a1 RNA (SEQ ID NO: 5), synthetically derived from the predicted structures; assay: Fluorescence binding measurements, J6a1 RNA; conditions: K1 - high affinity; fluorescent ligand per footnote a/b; read-out: Dissociation Constants K1(PYT)
Procedure: as §3, §4, §2, §1

[9] = fluorescence, competition with PYT (150 nM PYT, 300 nM W13), 20° C., pH 7.4, N.B. = no measurable binding

Compound	Kd [1] [nM]	competition with PYT binding (in words) [3]	Kd [3, 9] [nM]	further results
NC[C@@H]1O[C@H](O[C@H]2[C@@H](O)[C@H](O[C@@H]3[C@@H](O)[C@H](N)C[C@H](N)[C@H]3O[C@H]3O[C@H](CO)[C@@H](O)C[C@H]3N)O[C@@H]2CO)[C@H](N)[C@@H](O)[C@@H]1O[C@H]1O[C@H](CO)[C@@H](O)[C@H](O)[C@@H]1O [lividomycin-A, lividomycin A]	11900 ± 330			
CC(=O)NCC1OC(OC2C(N)CC(N)C(OC3OC(CO)C(O)C(N)C3O)C2O)C(N)CC1O (stereo not shown) [^3 H-acetyl tobramycin, 6-N-^3 H-Acetyl Tobramycin]				Kd [2]: 1300 nM
CC[C@H]1OC(=O)[C@H](C)[C@@H](O[C@H]2C[C@@](C)(OC)[C@@H](O)[C@H](C)O2)[C@H](C)[C@@H](O[C@@H]2O[C@H](C)C[C@H](N(C)C)[C@H]2O)[C@](C)(O)C[C@@H](C)C(=O)[C@H](C)[C@@H](O)[C@]1(C)O [erythromycin]		only weakly inhibited PYT binding	505000 ± 25000	
gentamicin	10800 ± 680	potent inhibitors of binding	4700 ± 4000	
NC[C@@H]1O[C@H](O[C@H]2[C@@H](O)[C@H](O[C@@H]3[C@@H](O)[C@H](N)C[C@H](N)[C@H]3O[C@H]3O[C@H](CN)[C@@H](O)[C@H](O)[C@H]3N)O[C@@H]2CO)[C@H](N)[C@@H](O)[C@@H]1O [neomycin B]	419 ± 3.8	potent inhibitors of binding		
N[C@@H]1[C@@H](O)[C@@H](O[C@@H]2[C@@H](O)[C@H](O[C@H]3O[C@H](CNC(=O)Cc4ccc5ccc6cccc7ccc4c5c67)[C@@H](O)C[C@H]3N)[C@@H](N)C[C@H]2N)O[C@H](CO)[C@H]1O [6'N4-pyreneacetyl tobramycin, 6'-N-4-pyreneacetyl tobramycin]				Kd [4]: 65.1 ± 7.4 nM
N[C@H]1C(O)O[C@H](CO)[C@@H](O)[C@@H]1O (stereo partly drawn) [D-glucosamine]		did not measurably compete with PYT binding		KD (μM) [3, 9]: N.B.; elution of bound RNA from tobramycin affinity column (in words) [5]: did not cause any bound RNA to be eluted
N[C@@H]1[C@@H](O)[C@@H](O[C@@H]2[C@@H](O)[C@H](O[C@H]3O[C@H](CNC(=O)CCCc4ccc5ccc6cccc7ccc4c5c67)[C@@H](O)C[C@H]3N)[C@@H](N)C[C@H]2N)O[C@H](CO)[C@H]1O [PYT, 6'-N-4-pyrenebutyryl tobramycin]			20 ± 7	Kd ([3]; fluorescence intensity of PYT as function of RNA concentration, 1:1 complex, 20° C., pH 7.4): 20 ± 4 nM; times more tightly bound than tobramycin ([3]; ratio of KD values, PYT vs tobramycin): more than 200 times; Kd [6]: 52 ± 8 nM; Kd [7]: 5.38 ± 0.46 nM; Kd [8]: 286 ± 10 nM
